This note sets out measurements from PMC4047407 (The Journal of Biological Chemistry, 2014).

Structures are written as SMILES. Where a SMILES comes first, the peptide text is derived from it. Bridges are numbered along the chain shown (N, C = ends).

One assay has as its target T1, M. sexta V-ATPase (Manduca sexta, UniProt P31403).
T1 construct: The M. sexta V1Vo holoenzyme was extracted and purified as described previously; from tissue
The assay can be described thus: V-ATPase assay, detection of released phosphate, purified V1Vo holoenzyme. Format: biochemical. The settings on record: Fig. 5, read-out: apparent Ki, inhibition of M. sexta V-ATPase. As to the method:
(§1) S. oryzae strains WAA42 and ISOR3 were reared according to Louis et al. ([25]). […] PA1b labeling using ^125I and binding assays using the ^125I toxin were performed according to Ref. [22], and binding data were analyzed using the SIMFIT software. Fifth instar larvae of M. sexta (Lepidoptera, Sphingidae), weighing 6–8 g, were reared under long day conditions (16 h of light) at 27 °C using the gypsy moth diet (MP Biomedicals).
(§2) V-ATPase assays based on the detection of released phosphate using the M. sexta V-ATPase or yeast vacuolar membranes were carried out as reported previously ([23], [28], [29]).
(§3) FIGURE 5. Inhibition of yeast V-ATPase activity. […] For comparison, inhibition of the purified V1Vo holoenzyme of M. sexta (squares) by PA1b is included.

The subject of assay [1] is crude membrane extract of S. oryzae (PA1b binding site). Details: species or system Sitophilus oryzae. Conditions: WAA42 membrane extracts; bafilomycin up to 10 μM; data not shown.
The subject of another assay is S. oryzae strain WAA42. The assay can be described thus: Weevil toxicity bioassay, inhibitor in the food, PA1b-sensitive strain. The class given is in vivo, Sitophilus oryzae. The settings on record: 30 weevils, artificial diet over 14 days. The protocol: as §1
(§4) FIGURE 6. […] 30 rice weevils (S. oryzae) were fed on artificial diet incorporating each tested compound over 14 days. The weevil strains were WAA42 (PA1b-sensitive strain: open symbols) and ISOR3 (PA1b-resistant strain: filled symbols). […] Open diamonds/dashed line, control for artificial diet with bafilomycin solvent.

The subject of the next assay is S. oryzae strain ISOR3. The assay can be described thus: Weevil toxicity bioassay, inhibitor in the food, PA1b-resistant strain. Format: in vivo, Sitophilus oryzae. Conditions: 30 weevils; for Mortality: 14 days. The protocol:
as §1, §4

The target of assay [2] is V-ATPase from wild type S. cerevisiae strain BMA64-1B (Saccharomyces cerevisiae, UniProt P23968+P25515+P32842). The assay can be described thus: V-ATPase assay on yeast vacuolar membranes, wild type strain. The class given is biochemical. Conditions: Fig. 5, read-out: Ki, inhibition of V-ATPase activity. As to the method:
as §2, §3

T1 sequence (P31403 whole entry): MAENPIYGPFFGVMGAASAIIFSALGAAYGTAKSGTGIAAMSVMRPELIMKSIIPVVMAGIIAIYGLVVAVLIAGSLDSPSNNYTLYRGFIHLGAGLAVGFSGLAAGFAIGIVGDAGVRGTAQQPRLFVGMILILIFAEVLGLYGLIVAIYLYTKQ

Take `CC[C@H](C)[C@@H]1NC(=O)[C@H](C(C)C)NC(=O)[C@H](CC(C)C)NC(=O)CNC(=O)[C@H](C(C)C)NC(=O)[C@@H]2CCCN2C(=O)[C@H]([C@@H](C)CC)NC(=O)[C@@H]2CSSC[C@@H]3NC(=O)[C@H](C(C)C)NC(=O)CNC(=O)[C@H](CC(N)=O)NC(=O)[C@@H](NC(=O)[C@H](CO)NC(=O)[C@H](C)N)CSSC[C@H](NC(=O)[C@H](C)NC(=O)[C@H](CO)NC(=O)[C@H]([C@@H](C)O)NC(=O)CNC(=O)[C@H](CSSC[C@@H](C(=O)N[C@@H](CCCNC(=N)N)C(=O)N[C@@H](CC(N)=O)C(=O)N4CCC[C@H]4C(=O)N[C@@H](CO)C(=O)NCC(=O)O)NC(=O)[C@H](Cc4ccc(O)cc4)NC(=O)CNC1=O)NC(=O)[C@@H]1CCCN1C(=O)[C@@H]1CCCN1C(=O)[C@H](CCSC)NC(=O)[C@H](CCC(=O)O)NC(=O)[C@H](Cc1ccccc1)NC(=O)[C@@H]1CCCN1C(=O)[C@H](CO)NC3=O)C(=O)N[C@@H](CCCNC(=N)N)C(=O)N2` [PA1b, pea albumin 1 subunit b] (H-ASCNGVCSPFEMPPCGTSACRCIPVGLVIGYCRNPSG-OH; disulfide 3-20, 7-22, 15-32): the Ki on M. sexta V-ATPase was around 0.091 µM.

On to `CO/C1=C\C(C)=C\[C@@H](C)[C@@H](O)[C@@H](C)C/C(C)=C/C=C/[C@H](OC)[C@@H]([C@@H](C)[C@@H](O)[C@H](C)[C@@]2(O)C[C@@H](O)[C@H](C)[C@@H](C(C)C)O2)OC1=O` [bafilomycin, bafilomycin A1], for which the “Inhibition of binding of radiolabeled PA1b by bafilomycin” value in assay [1] is “unable to inhibit”. The TL50 stood at 12.6 ± 2.3 days in the assay on S. oryzae strain WAA42 (bafilomycin 0.36 mg/g of food); 9.4 ± 1 days in the assay with S. oryzae strain WAA42 (bafilomycin 0.60 mg/g of food); 4.0 ± 0.2 days in the assay on S. oryzae strain WAA42 (bafilomycin 2.0 mg/g food); 9.9 ± 0.5 days with S. oryzae strain ISOR3 (bafilomycin 2.0 mg/g food, artificial diet over 14 days). The Mortality result with S. oryzae strain ISOR3 (bafilomycin 0.36 mg/g of food) and in the assay on S. oryzae strain ISOR3 (bafilomycin 0.60 mg/g of food) was “no mortality” each time. Also, the Ki in assay [2] was around 0.0024 µM.
